This passage reports IC50 results from patent US9487490B2, “3-cyclohexenyl and cyclohexyl substituted indole and indazole compounds as RORgammaT inhibitors and uses thereof” (Merck Sharp & Dohme Corp., priority 2012, dated 2016).

Sequence of human RORgammaT-Ligand Binding Domain (LBD) (P51449 269-508): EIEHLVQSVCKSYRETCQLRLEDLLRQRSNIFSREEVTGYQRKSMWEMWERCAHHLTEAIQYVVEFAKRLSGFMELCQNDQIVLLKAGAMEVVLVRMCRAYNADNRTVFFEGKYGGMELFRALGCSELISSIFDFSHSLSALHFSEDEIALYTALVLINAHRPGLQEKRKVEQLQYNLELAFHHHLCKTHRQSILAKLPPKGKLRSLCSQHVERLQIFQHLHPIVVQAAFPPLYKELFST

In one experiment the target is human RORgammaT-Ligand Binding Domain (LBD) (Homo sapiens (Human), UniProt P51449). In words: RORγ-Ligand Binding Domain TR-FRET assay (co-activator peptide SRC1_2 recruitment). The format is biochemical. Conditions: Fret IC50 (nM), HIS-tagged RORγ-LBD 3 nM, biotinylated SRC1 LXXLL peptide 100 nM, incubated overnight at 4° C., 665 nm/615 nm signal quotient. The source says:
Activation of RORgammaT activity can be measured using, e.g., biochemical TR-FRET assay. In such an assay, interaction of cofactor-derived peptides with human RORgammaT-Ligand Binding Domain (LBD) can be measured.
To identify novel antagonists of RORgammaT, an assay was developed which employs the interaction of RORgammaT with its co-activator peptide SRC1_2. […] The RORγ-Ligand Binding Domain TR-FRET Assay was run according to the following protocol.
HIS-tagged RORγ-LBD protein was expressed in SF9 cells using a baculovirus expression system. The RORγ-LBD protein was purified by glutathione sepharose chromatography. Separately, SF9 cells not expressing any recombinant protein were lysed and the lysate was added to the purified RORγ-LBD at 0.25 μl lysate (from 10,000 SF9 cells)/nM purified protein. The mixture was then diluted in assay buffer (50 mM Tris pH 7.0, 50 mM KCl, 1 mM EDTA, 0.1 mM DTT) to obtain RORγ-LBD final concentration of 3 nM in 384-well assay plate.
Compounds to be tested were injected to the assay plate using Acoustic Droplet Ejection technology by Echo 550 liquid handler (Labcyte, Calif.).
Background: TR-FRET usually uses a lanthanide donor and a delayed reading to cut background.
Broadly, the IC50 is the concentration that inhibits the measured activity by half. In the case of `CC1(C)C=C(c2nn(C(=O)c3c(Cl)cccc3C(F)(F)F)c3cccc(F)c23)CCC1C(=O)O` (racemic) [Example 10A, (R and S)-4-(1-(2-chloro-6-(trifluoromethyl)benzoyl)-4-fluoro-1H-indazol-3-yl)-2,2-dimethylcyclohex-3-enecarboxylic acid], the IC50 turned out to be 343 nM.

On to `CC1(C)CC(c2nn(C(=O)c3c(Cl)cccc3C(F)(F)F)c3cccc(F)c23)=CCC1C(=O)O` (racemic) [Example 10B, (R and S) 4-(1-(2-chloro-6-(trifluoromethyl)benzoyl)-4-fluoro-1H-indazol-3-yl)-6,6-dimethylcyclohex-3-enecarboxylic acid], for which the IC50 turned out to be 96 nM.

Still in this experiment, the particulars now being: HIS-tagged RORγ-LBD 3 nM, biotinylated SRC1 LXXLL peptide 100 nM, incubated overnight at 4° C., 665 nm/615 nm signal quotient; read-out: Fret IC50.
Take `CC1CC(C(=O)O)CC=C1c1nn(C(=O)c2c(Cl)cccc2C(F)(F)F)c2cccc(F)c12` (racemic) [Example 12A, 4-(1-(2-chloro-6-(trifluoromethyl)benzoyl)-4-fluoro-1H-indazol-3-yl)-5-methylcyclohex-3-enecarboxylic acid]: the IC50 was 54 nM.

Turning to `COC1CN(C(=O)c2ccc3c(C4=CCC(C(=O)O)CC4)nn(C(=O)c4c(Cl)cccc4C4CC4)c3c2)C1` (single isomer, unassigned) [Example 2A, (R or S)-4-(1-(2-chloro-6-cyclopropylbenzoyl)-6-(3-methoxyazetidine-1-carbonyl)-1H-indazol-3-yl)cyclohex-3-enecarboxylic acid], the IC50 was 2 nM. Take `COC1CN(C(=O)c2ccc3c(C4=CCC(C(=O)O)CC4)nn(C(=O)c4c(Cl)cccc4C4CC4)c3c2)C1` (single isomer, unassigned) [Example 2B, (S or R)-4-(1-(2-chloro-6-cyclopropylbenzoyl)-6-(3-methoxyazetidine-1-carbonyl)-1H-indazol-3-yl)cyclohex-3-enecarboxylic acid]: the concentration for half-maximal inhibition (IC50) is 2 nM. Take `COC1CN(C(=O)c2ccc3c(C4=CC[C@](C)(C(=O)O)CC4)nn(C(=O)c4c(Cl)cccc4C4CC4)c3c2)C1` (single isomer, unassigned) [Example 2C, (R or S)-4-(1-(2-chloro-6-cyclopropylbenzoyl)-6-(3-methoxyazetidine-1-carbonyl)-1H-indazol-3-yl)-1-methylcyclohex-3-enecarboxylic acid]: the concentration for half-maximal inhibition (IC50) was 4 nM. Consider `COC1CN(C(=O)c2ccc3c(C4=CC[C@@](C)(C(=O)O)CC4)nn(C(=O)c4c(Cl)cccc4C4CC4)c3c2)C1` (single isomer, unassigned) [Example 2D, (S or R)-4-(1-(2-chloro-6-cyclopropylbenzoyl)-6-(3-methoxyazetidine-1-carbonyl)-1H-indazol-3-yl)-1-methylcyclohex-3-enecarboxylic acid], for which the IC50 is 5 nM. Consider `CN(C)C(=O)c1ccc2c(C3=CCC(C(=O)O)CC3)nn(C(=O)c3c(Cl)cccc3C(F)(F)F)c2c1` (stereo not drawn) [Example 1A, 4-(1-(2-chloro-6-(trifluoromethyl)benzoyl)-6-(dimethylcarbamoyl)-1H-indazol-3-yl)cyclohex-3-enecarboxylic acid], for which the IC50 was 18 nM. On the same count and under the same terms, for `O=C(NCCO)c1ccc2c(C3=CCC(C(=O)O)CC3)nn(C(=O)c3c(Cl)cccc3C(F)(F)F)c2c1` (stereo not drawn) [Example 1D, 4-(1-(2-chloro-6-(trifluoromethyl)benzoyl)-6-(2-hydroxyethylcarbamoyl)-1H-indazol-3-yl)cyclohex-3-enecarboxylic acid] the value was 774 nM; for `CC1(C(=O)O)CC=C(c2nn(C(=O)c3c(Cl)cccc3C(F)(F)F)c3cccnc23)CC1` (stereo not drawn) [Example 1F, 4-(1-(2-chloro-6-(trifluoromethyl)benzoyl)-1H-pyrazolo[4,3-b]pyridin-3-yl)-1-methylcyclohex-3-enecarboxylic acid], 170 nM; for `CC1C=C(c2nn(C(=O)c3c(Cl)cccc3C(F)(F)F)c3cccnc23)CCC1C(=O)O` (stereo not drawn) [Example 1G, 4-(1-(2-chloro-6-(trifluoromethyl)benzoyl)-1H-pyrazolo[4,3-b]pyridin-3-yl)-2-methylcyclohex-3-enecarboxylic acid], 182 nM.

In the case of `O=C(O)C1CC=C(c2nn(C(=O)c3c(Cl)cccc3C(F)(F)F)c3ccccc23)CC1` (stereo not drawn) [Example 1H, 4-(1-(2-chloro-6-(trifluoromethyl)benzoyl)-1H-indazol-3-yl)cyclohex-3-enecarboxylic acid], the IC50 turned out to be 20 nM. As to `CC1(C(=O)O)CC=C(c2nn(C(=O)c3c(Cl)cccc3C(F)(F)F)c3cccc(Cl)c23)CC1` (stereo not drawn) [Example 1I, 4-(4-chloro-1-(2-chloro-6-(trifluoromethyl)benzoyl)-1H-indazol-3-yl)-1-methylcyclohex-3-enecarboxylic acid], the IC50 was 14 nM. As for `CC1(C(=O)O)CC=C(c2nn(C(=O)c3c(Cl)cccc3C3CC3)c3cccc(F)c23)CC1` (stereo not drawn) [Example 1J, 4-(1-(2-chloro-6-cyclopropylbenzoyl)-4-fluoro-1H-indazol-3-yl)-1-methylcyclohex-3-enecarboxylic acid], the IC50 came out at 7 nM. On to `Cc1cccc(Cl)c1C(=O)n1nc(C2=CCC(C(=O)O)CC2)c2c(F)cccc21` (stereo not drawn) [Example 1K, 4-(1-(2-chloro-6-methylbenzoyl)-4-fluoro-1H-indazol-3-yl)cyclo-hex-3-enecarboxylic acid], for which the 50% inhibitory concentration (IC50) came to 31 nM. With `Cc1cccc(Cl)c1C(=O)n1nc(C2=CCC(C(=O)O)CC2)c2ncccc21` (stereo not drawn) [Example 1L, 4-(1-(2-chloro-6-methylbenzoyl)-1H-pyrazolo[4,3-b]pyridine-3-yl)cyclohex-3-enecarboxylic acid], the IC50 is 123 nM. Regarding `O=C(O)C1CC=C(c2nn(C(=O)c3c(Cl)cccc3C(F)(F)F)c3cc(C(=O)N4CC(F)(F)C4)ccc23)CC1` (stereo not drawn) [Example 4A, 4-(1-(2-chloro-6-(trifluoromethyl)benzoyl)-6-(3,3-difluoroazetidine-1-carbonyl)-1H-indazol-3-yl)cyclohex-3-enecarboxylic acid], the IC50 worked out at 5 nM. As to `O=C(NC1CC1)c1ccc2c(C3=CCC(C(=O)O)CC3)nn(C(=O)c3c(Cl)cccc3C(F)(F)F)c2c1` (stereo not drawn) [Example 4B, 4-(1-(2-chloro-6-(trifluoromethyl)benzoyl)-6-(cyclopropylcarbamoyl)-1H-indazol-3-yl)cyclohex-3-enecarboxylic acid], the IC50 worked out at 143 nM. Still for that read-out and setting: for `CN(C(=O)c1ccc2c(C3=CCC(C(=O)O)CC3)nn(C(=O)c3c(Cl)cccc3C(F)(F)F)c2c1)C1CC1` (stereo not drawn) [Example 4C, 4-(1-(2-chloro-6-(trifluoromethyl)benzoyl)-6-(cyclopropyl(methyl)carbamoyl)-1H-indazol-3-yl)cyclohex-3-enecarboxylic acid] the value was 9 nM; for `O=C(O)C1CC=C(c2nn(C(=O)c3c(Cl)cccc3C(F)(F)F)c3cc(C(=O)N4CCC4)ccc23)CC1` (stereo not drawn) [Example 4D, 4-(6-(azetidine-1-carbonyl)-1-(2-chloro-6-(trifluoromethyl)benzoyl)-1H-indazol-3-yl)cyclohex-3-enecarboxylic acid], 177 nM.

With `COC1CN(C(=O)c2ccc3c(C4=CCC(C(=O)O)CC4)nn(C(=O)c4c(Cl)cccc4C(F)(F)F)c3c2)C1` (stereo not drawn) [Example 4E, 4-(1-(2-chloro-6-(trifluoromethyl)benzoyl)-6-(3-methoxyazetidine-1-carbonyl)-1H-indazol-3-yl)cyclohex-3-enecarboxylic acid], the IC50 came to 2 nM.
